Measured values from PMC6934184, “Selective DNA-PKcs inhibition extends the therapeutic index of localized radiotherapy and chemotherapy” (The Journal of Clinical Investigation, 2019).

Molecular target: T1, PAK2 (PAK65) (Homo sapiens, UniProt Q13177)
T1 construct: purchased Thermo Fisher Scientific (Life Technologies) SelectScreen
Assay: SelectScreen Z'LYTE
Format: biochemical
Outline: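 NU5455 was profiled across the SelectScreen Broad panel of kinase activity and binding assays. Z'LYTE reactions such as CSF1R ran at apparent Km ATP, while the Adapta CAMK1 assay used ATP listed as 10. Values are given as percent.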

T1 sequence (Q13177 whole entry): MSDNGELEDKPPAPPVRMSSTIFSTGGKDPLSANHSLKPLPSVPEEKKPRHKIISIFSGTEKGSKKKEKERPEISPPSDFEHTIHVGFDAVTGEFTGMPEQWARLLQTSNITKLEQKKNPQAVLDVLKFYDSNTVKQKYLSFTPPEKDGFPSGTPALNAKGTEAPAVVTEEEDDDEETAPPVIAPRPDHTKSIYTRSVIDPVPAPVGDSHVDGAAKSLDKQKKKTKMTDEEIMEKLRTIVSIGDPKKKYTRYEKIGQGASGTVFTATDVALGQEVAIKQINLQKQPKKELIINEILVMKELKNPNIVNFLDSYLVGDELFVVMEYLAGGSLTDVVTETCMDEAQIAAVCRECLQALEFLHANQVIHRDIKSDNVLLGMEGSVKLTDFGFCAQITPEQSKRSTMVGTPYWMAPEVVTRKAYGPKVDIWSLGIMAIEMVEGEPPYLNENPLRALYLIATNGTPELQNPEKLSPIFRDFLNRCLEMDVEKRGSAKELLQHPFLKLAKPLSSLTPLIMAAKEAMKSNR

For `CN(C(=O)CN1CCOCC1)c1ccc2sc3c(-c4cccc5c(=O)cc(N6CC7CCC(C6)O7)oc45)cccc3c2c1` [NU5455], the inhibition at 1 µM was 4%.
